The subject of test [1] is rhabdomyosarcoma (RD) cells. As to the kind of experiment: Assay for inhibition of cell proliferation (MTT), rhabdomyosarcoma cells. The note with it: for IC50: rhabdomyosarcoma (RD) cells, MTT, 96 h incubation; for RD Ratio (paclitaxel/compound): ratio of paclitaxel IC50 to compound IC50, RD cells. Format: cell-based, human. The method, then:
(§1) Human rabdomyosarcoma (RD) and mouse neuroblastoma (N1E115) cell lines were obtained from the American Type Culture Collection (ATCC, Rockville, Md.). The RD cells were grown in Dulbecco's modified eagle medium (DMEM) supplemented with 4 mM glutamine, containing 10% fetal bovine serum (ATCC #30-2020) and supplemented with 1% penicillin and 1% streptomycin. When confluent, the cells were maintained by passage (about once per week) until needed. The N1E115 line was also cultured in DMEM with 4 mM glutamine containing 10% newborn calf serum (Gibco, Grand Island, N.Y.) and likewise maintained.
(§2) The proliferation of rhabdomyosarcoma cells was determined using a cell proliferation assay kit based on the formation of insoluble formazan crystals from 3-(4,5-dimethylthiazol-2-yl)-2,5-diphenyltetrazolium bromide (MTT). The rhabdomyosarcoma cells were cultured to a density of 10^5 cells per mL. The cell culture (100 μL) was dispensed into wells of a 96-well plate to 10^4 cells per well. The plate was incubated at 37° C. for 3 h until the cells firmly attached to the well surfaces.
(§3) A second 96-well round bottom plate was made up containing the test compounds, serially diluted to cover the concentration range of interest using the DMEM medium plus antibiotics. The final concentration of DMSO in which the compounds were initially dissolved was maintained at a constant 0.5% in each well and the volume of the compounds in the plate was 220 μL. Following the 3 h incubation the medium was removed from the plate containing the cells and replaced with 200 μL of the solutions containing the compounds. The cells were incubated for a further 96 h before the assessment of growth inhibition using MTT.
(§4) The cells were left bathing in 100 μL of the saline solution to which was added 100 μL of MTT in saline (12 mM). Incubation was continued for 4 h at 37° C. to produce the blue formazan color which was quantified by optical density measurements at 570 nm. Background correction of all test wells was performed by subtraction of the yellow MTT solution color measured at 570 nm in cell-free wells. The data were normalized to solvent only control wells.

The test system of test [2] is neuroblastoma (N1E115) cells. The experiment in a line: Assay for inhibition of cell proliferation (MTT), neuroblastoma cells. Type of test: cell-based, mouse. The settings on record: for IC50: neuroblastoma (N1E115) cells, MTT; for N1E115 Ratio (paclitaxel/compound): ratio of paclitaxel IC50 to compound IC50, N1E115 cells. The procedure:
as §1, §2, §3, §4

For the compound `CC(C)Cn1c(-c2c(F)cccc2F)c(Cl)nc(-n2cccn2)c1=O` [Compound 1, 5-Chloro-6-(2,6-difluorophenyl)-1-(2-methylpropyl)-3-(1H-pyrazol-1-yl)-2(1H)-pyrazinone], the IC50 in test [1] (Homo sapiens) was 500 nM; in test [2] (Mus musculus, N1E-115), 110 nM. For the same compound, the “RD Ratio (paclitaxel/compound)” value in test [1] is 0.03. In addition, the “N1E115 Ratio (paclitaxel/compound)” value in test [2] was 0.80.

With `CC(C)Cn1c(-c2c(F)cccc2F)c(Cl)nc(-n2cncn2)c1=O` [Compound 3], in test [1], the “RD Ratio (paclitaxel/compound)” value is given as 0.01 and the concentration for half-maximal inhibition (IC50) is 3010 nM. Further, in test [2], 790 nM corresponded to half-maximal inhibition (IC50) and the “N1E115 Ratio (paclitaxel/compound)” value turned out to be 0.11.

As to `CCCCn1c(-c2c(F)cc(F)cc2F)c(Cl)nc(-c2ccccn2)c1=O` [Compound 240], in test [1], the “RD Ratio (paclitaxel/compound)” value was found to be 0.01 and the IC50 is 1670 nM. Moreover, in test [2], the IC50 is 59 nM and the “N1E115 Ratio (paclitaxel/compound)” value is on record as 1.49.

Take `CC[C@H](C)Cn1c(-c2ccc(F)cc2Cl)c(Cl)nc(-n2cccn2)c1=O` [Compound 263]: in test [1], the “RD Ratio (paclitaxel/compound)” value was found to be 0.34 and the 50% inhibitory concentration (IC50) was 50 nM. Further, in test [2], the IC50 is 80 nM and the “N1E115 Ratio (paclitaxel/compound)” value amounted to 1.10.

Take `O=c1c(-n2cccn2)nc(Cl)c(-c2c(F)cccc2F)n1Cc1ccc(F)cc1` [Compound 272]: in test [1], the “RD Ratio (paclitaxel/compound)” value is on record as 0.24 and the IC50 was found to be 70 nM. Further, in test [2], the IC50 was determined as 70 nM and the “N1E115 Ratio (paclitaxel/compound)” value turned out to be 1.26.

On to `O=c1c(-n2cccn2)nc(Cl)c(-c2c(F)cc(F)cc2F)n1-c1cccc(F)c1` [Compound 324], for which, in test [1], the “RD Ratio (paclitaxel/compound)” value was 0.34 and the midpoint of inhibition, the IC50, lay at 50 nM. For the same compound, in test [2], 147 nM corresponded to half-maximal inhibition (IC50) and the “N1E115 Ratio (paclitaxel/compound)” value is given as 0.60.

Take `CCC(C)Cn1c(-c2c(F)cc(F)cc2F)c(Cl)nc(C(N)=O)c1=O` (stereo not shown) [Compound 415]: in test [1], the “RD Ratio (paclitaxel/compound)” value was 0.43 and the IC50 came to 40 nM. In addition, in test [2], the IC50 was 60 nM and the “N1E115 Ratio (paclitaxel/compound)” value was 1.47.

Take `CC[C@H](C)Cn1c(-c2c(F)cc(OC)cc2F)c(Cl)nc(-n2cccn2)c1=O` [Compound 457, 5-Chloro-1-[(2S)-2-methylbutyl)-3-(1H-pyrazol-1-yl)-6-(2,6-difluoro-4-methoxyphenyl)-2(1H)-pyrazinone]: the IC50 in test [1] (Homo sapiens) was found to be 1.1 nM; in test [2] (Mus musculus, N1E-115) it was 39 nM. Also, the “RD Ratio (paclitaxel/compound)” value in test [1] came to 15.45. Also, the “N1E115 Ratio (paclitaxel/compound)” value in test [2] stood at 2.26.

Regarding `O=c1c(-n2cccn2)nc(Cl)c(-c2c(F)cc(F)cc2F)n1CC1CC1` [Compound 460], in test [1], the “RD Ratio (paclitaxel/compound)” value was 0.19 and 90 nM corresponded to half-maximal inhibition (IC50). In test [2], 170 nM corresponded to half-maximal inhibition (IC50) and the “N1E115 Ratio (paclitaxel/compound)” value was determined as 0.52.

As to `CCC(C)Cn1c(-c2ccc(OCCN(C)C)cc2F)c(Cl)nc(-n2cccn2)c1=O` (stereo not shown) [Compound 477], in test [1], the “RD Ratio (paclitaxel/compound)” value amounted to 0.06 and inhibition was half-maximal at 262 nM (IC50). Further, in test [2], the IC50 worked out at 462 nM and the “N1E115 Ratio (paclitaxel/compound)” value is recorded as 0.19.

On to `CCC(C)Cn1c(-c2ccc(OCCN3CCCC3)cc2F)c(Cl)nc(-n2cccn2)c1=O` (stereo not shown) [Compound 478], for which, in test [1], the “RD Ratio (paclitaxel/compound)” value is 0.04 and the IC50 came out at 470 nM. In test [2], inhibition was half-maximal at 1090 nM (IC50) and the “N1E115 Ratio (paclitaxel/compound)” value was 0.08.

As to `CCC(C)Cn1c(-c2c(F)cc(OCCN(C)C)cc2F)c(Cl)nc(-n2cccn2)c1=O` (stereo not shown) [Compound 479, 5-Chloro-6-[4-[2-(dimethylamino)ethoxy]-2,6-difluorophenyl]-1-(2-methylbutyl)-3-(1H-pyrazol-1-yl)-2(1H)-pyrazinone], the half-maximal inhibitory concentration (IC50) in test [1] (Homo sapiens) was 200 nM; in test [2] (Mus musculus, N1E-115), 25 nM. In addition, the “RD Ratio (paclitaxel/compound)” value in test [1] is on record as 0.09. Besides, the “N1E115 Ratio (paclitaxel/compound)” value in test [2] is 3.52.

For the compound `CCC(C)Cn1c(-c2c(F)cc(OCCN3CCCC3)cc2F)c(Cl)nc(-n2cccn2)c1=O` (stereo not shown) [Compound 480], in test [1], the “RD Ratio (paclitaxel/compound)” value came out at 0.04 and half-maximal inhibition (IC50) required 463 nM. Further, in test [2], the IC50 was found to be 393 nM and the “N1E115 Ratio (paclitaxel/compound)” value stood at 0.22.

In the case of `CN(C)CCCOc1cc(F)c(-c2c(Cl)nc(-n3cccn3)c(=O)n2CC2CC2)c(F)c1` [Compound 481, 5-chloro-1-cyclopropylmethyl-6-[4-[3-(dimethylamino)propoxy]-2,6-difluorophenyl]-3-(1H-pyrazol-1-yl)-2(1H)-pyrazinone], the IC50 was determined as 3.2 nM in test [1] (Homo sapiens) and 30 nM in test [2] (Mus musculus, N1E-115). Besides, the “RD Ratio (paclitaxel/compound)” value in test [1] is listed as 5.37. In addition, the “N1E115 Ratio (paclitaxel/compound)” value in test [2] is given as 2.93.

Turning to `CC[C@H](C)Cn1c(-c2c(F)cc(OCCCN(C)C)cc2F)c(Cl)nc(-n2cccn2)c1=O` [Compound 482, 5-chloro-6-[4-[3-(dimethylamino)propoxy]-2,6-difluorophenyl]-1-[(2S)-2-methylbutyl]-3-(1H-pyrazol-1-yl)-2(1H)-pyrazinone], the IC50 came out at 1.5 nM in test [1] (Homo sapiens) and 2.6 nM in test [2] (Mus musculus, N1E-115). Further, the “RD Ratio (paclitaxel/compound)” value in test [1] was found to be 11.33. In addition, in test [2], the “N1E115 Ratio (paclitaxel/compound)” value stood at 33.85.

Turning to `CC[C@H](C)Cn1c(-c2c(F)cc(OCCN(C)C)cc2F)c(Cl)nc(-n2cccn2)c1=O` [Compound 483], in test [1], the “RD Ratio (paclitaxel/compound)” value worked out at 0.43 and the IC50 was determined as 39.7 nM. Besides, in test [2], the IC50 is 81 nM and the “N1E115 Ratio (paclitaxel/compound)” value worked out at 1.09.

Consider `CC[C@H](C)Cn1c(-c2c(F)cc(OCCN(C)C)cc2F)c(Cl)nc(C(N)=O)c1=O` [Compound 484], for which, in test [1], the “RD Ratio (paclitaxel/compound)” value came to 1.70 and the IC50 is 10 nM. Moreover, in test [2], the IC50 worked out at 285 nM and the “N1E115 Ratio (paclitaxel/compound)” value is reported as 0.31.

In the case of `CC(Cn1c(-c2c(F)cc(OCCCN(C)C)cc2F)c(Cl)nc(-n2cccn2)c1=O)C(F)(F)F` (stereo not shown) [Compound 485, 5-chloro-6-[4-[3-(dimethylamino)propoxy]-2,6-difluorophenyl]-3-(1H-pyrazol-1-yl)-1-(3,3,3-trifluoro-2-methylpropyl)-2(1H)-pyrazinone], the IC50 in test [1] (Homo sapiens) was 27.5 nM; in test [2] (Mus musculus, N1E-115), 151 nM. In addition, the “RD Ratio (paclitaxel/compound)” value in test [1] worked out at 0.62. Further, the “N1E115 Ratio (paclitaxel/compound)” value in test [2] is on record as 0.58.

For the compound `CN(C)CCCOc1cc(F)c(-c2c(Cl)nc(-n3cccn3)c(=O)n2-c2cccc(F)c2)c(F)c1` [Compound 491], in test [1], the “RD Ratio (paclitaxel/compound)” value came out at 0.60 and the IC50 was 28.5 nM. In test [2], it took 22 nM to reach half-maximal inhibition (IC50) and the “N1E115 Ratio (paclitaxel/compound)” value is 4.00.

In the case of `CNCCCOc1cc(F)c(-c2c(Cl)nc(-n3cccn3)c(=O)n2-c2cccc(F)c2)c(F)c1.Cl` [Compound 492], in test [1], the “RD Ratio (paclitaxel/compound)” value amounted to 5.15 and the IC50 came out at 3.3 nM. Moreover, in test [2], the IC50 is 16 nM and the “N1E115 Ratio (paclitaxel/compound)” value is listed as 5.50.

As to `CC[C@H](C)Cn1c(-c2c(F)cc(OCCCNC)cc2Cl)c(Cl)nc(-n2cccn2)c1=O` [Compound 493, 5-chloro-6-[2-chloro-6-fluoro-4-[3-(methylamino)propoxy]phenyl]-1-[(2S)-2-methylbutyl]-3-(1H-pyrazol-1-yl)-2(1H)-pyrazinone], the IC50 in test [1] (Homo sapiens) amounted to 0.6 nM; in test [2] (Mus musculus, N1E-115), 4.5 nM. The “RD Ratio (paclitaxel/compound)” value in test [1] worked out at 28.33. For the same compound, in test [2], the “N1E115 Ratio (paclitaxel/compound)” value worked out at 19.56.

`CC[C@H](C)Cn1c(-c2c(F)cc(OCCCNC)cc2F)c(Cl)nc(-n2ccc(C)n2)c1=O` [Compound 494, 5-chloro-6-[2,6-difluoro-4-[3-(methylamino)propoxy]phenyl]-1-[(2S)-2-methylbutyl]-3-(3-methyl-1H-pyrazol-1-yl)-2(1H)-pyrazinone]: the half-inhibitory concentration (IC50) in test [1] (Homo sapiens) stood at 0.4 nM; in test [2] (Mus musculus, N1E-115), 1.3 nM. Also, the “RD Ratio (paclitaxel/compound)” value in test [1] was 42.50. The “N1E115 Ratio (paclitaxel/compound)” value in test [2] worked out at 67.69.

Turning to `CC(C)Cn1c(-c2c(F)cc(OCCCN(C)C)cc2F)c(Cl)nc(-n2cccn2)c1=O` [Compound 495], in test [1], the “RD Ratio (paclitaxel/compound)” value is listed as 0.49 and the IC50 worked out at 35 nM. Also, in test [2], the IC50 was found to be 353 nM and the “N1E115 Ratio (paclitaxel/compound)” value was 0.25.

On to `CNCCCOc1cc(F)c(-c2c(Cl)nc(-n3ccc(C)n3)c(=O)n2CC(C)C)c(F)c1` [Compound 496], for which, in test [1], the “RD Ratio (paclitaxel/compound)” value is listed as 0.40 and the IC50 is 43 nM. Further, in test [2], the IC50 turned out to be 90 nM and the “N1E115 Ratio (paclitaxel/compound)” value was 0.98.

For `Cc1ccn(-c2nc(Cl)c(-c3c(F)cc(OCCCN(C)C)cc3F)n(CC(C)C)c2=O)n1` [Compound 497], in test [1], the “RD Ratio (paclitaxel/compound)” value is 0.22 and the 50% inhibitory concentration (IC50) was 77 nM. Moreover, in test [2], the IC50 was determined as 180 nM and the “N1E115 Ratio (paclitaxel/compound)” value is given as 0.49.

(Values after patent US20090186907A1, “Pyrazinones As Cellular Proliferation Inhibitors” (E.I. DuPont De Nemours and Company, priority 2006, published 2009).)
